# “Also recorded” adds a separate entry of the source.
# Experiments:
# B16 melanoma [1] = assay: B16 melanoma preventive effect, diet on/off; type: in vivo, B57BL/6 mice; conditions: day 17, 5×10^5 B16 cells s.c.
# Source text: To test whether Urolithin A feeding would have a preventive effect by boosting the immune system inventors performed the following experiment. A less immunogenic tumor model B16 melanoma was chosen for this experiment. 10 mice received ad libitum DMSO diet (see above), and 10 mice received ad libitum Urolithin A enriched diet (see above) for 4 weeks. Then 5 mice from DMSO diet were placed in conventional diet (provided by Animal facility), this group was called DMSO on/off. The remaining 5 mice were kept in DMSO diet and named DMSO group. 5 mice from Urolithin diet were placed in conventional diet (provided by Animal facility), this group was called UroA on/off. The remaining 5 mice were kept in […]. After one week, 5×10^5 B16 cells were subcutaneously injected in the right flank of B57BL/6 mice. Tumor engraftment, diet treatment and re-challenge experiments were as described initially in Example 1.
# MC38 cells = assay: MC38 tumor challenge in immunodeficient NSG mice; type: in vivo; conditions: for effect on tumor growth rate and size: NSG immunodeficient mice, vs DMSO control
# Source text: To validate that the Urolithin A supplementation enhances the adaptive immune response 5×10^5 MC38 cells were subcutaneously injected in the right flank of the immunodeficient mice NSG (NOD.Cg-Prkdc^sc^i^d II2rg^tm1Wil/SzJ) previously fed with Urolithin A enriched diet for 4 weeks. Tumor volumes were estimated by using the formula: tumor volume=(length×width×width)/2. 5 mice recede the DMSO diet and 5 mice received the Urolithin A enriched diet. Both the 5 mice receiving the DMSO diet and the 5 mice receiving the Urolithin A enriched diet developed tumors.
# [2] = Initial tests in mice fed diet supplemented with UroA; type: in vivo
# B16 melanoma [3] = assay: B16 melanoma tumor challenge in mice fed UroA enriched diet; type: in vivo, B57BL/6 mice; conditions: 5 mice; Urolithin A enriched diet ad libitum 4 weeks before B16 injection
# Method: The B16 cell line were maintained in DMEM+GlutaMAX (Thermofisher) supplemented with 10% FBS (Gibco), and 100 U/ml penicillin/streptomycin (Thermofisher). B57BL/6 mice were purchased from ENVIGO and housed in the animal facility of the University of Lausanne. One week upon arrival mice were fed ad libitum with Urolithin A enriched diet. Urolithin A diet was prepared as follow: 300 mg of Urolithin A (Novalix) was dissolved in DMSO (Applichem) and mixed with 1 kg of “2016 Irradiated Global 16% Rodent diet ground” (ENVIGO) corresponding to a dose of 50 mg/kg/day. For control diet, hereafter named DMSO diet, DMSO (Applichem) was mixed with 1 kg of “2016 Irradiated Global 16% Rodent diet ground” (ENVIGO). The diets were aliquoted in small balls and let them dry under sterile conditions. Mice were fed ad libitum for 4 weeks with DMSO diet or Urolithin A diet before tumor engraftment. For tumor engraftment, each mouse was injected subcutaneously with 5×10^5 MC38 cancer cells or 1×10^5 B16 cancer cells into the right flank. For the MC38 and B16 experiments 5 mice received ad libitum DMSO diet, and 5 mice received ad libitum Urolithin A enriched diet for 4 weeks before tumor injection. Mice were sacrificed at humane endpoint as established by the Swiss federal regulation and approved by cantonal authorities. […]
# [4] = tested on: MC38 colorectal cancer cells; assay: MC38 tumor re-challenge of survivor mice; type: in vivo
# Source text: For re-challenge experiments, survivor mice were removed from the UroA diet and placed in conventional diet (diet provided by the animal facility of University of Lausanne) for one week. During this week one mouse developed tumor and was excluded from the experiment. The remaining 3 mice were subcutaneously injected with 5×10^5 MC38 cancer cells. At the same time, another 5 mice (named control cage) were subcutaneously injected with 5×10^5 MC38 cancer cells. This second tumor injection was done on the left flank of the mouse to discriminate between tumor arising from the first injection from tumor arising from the second, re-challenge, injection.
# Then, it was tested whether UroA mediated tumor control was exerted through adaptive immune response. It was assumed as a working hypothesis that memory T cells with antitumoral activity would have been generated in the survivor hosts, which would promptly react against a second tumor graft. To test this hypothesis, survivor mice from the UroA group were injected after 7 weeks with the same cancer cell line (MC38) in the opposite flank (FIG. 2A). To exclude any possible contribution of UroA in tumor growth, the mice survivor mice and a control cage group were kept in conventional food without UroA for one week before tumor injection.
# [5] = tested on: MC38 colorectal cancer cells; assay: MC38 tumor challenge in mice fed UroA enriched diet; type: in vivo, C57BL/6 mice
# Source text: Cell line and in vitro culture: An MC38 colorectal cancer cell line and a B16 cell line were used. The MC38 colorectal cancer cell line (Corbett el al., Can Res, 1975) is a murine colon adenocarcinoma cell line from a C57BL/6 mouse. The cells are adherent and have a fibroblast morphology. MC38 cells will form tumors and metastases post implantation into syngeneic C57BL/6 mice or immunocompromised mice. The B16 melanoma is a murine tumor cell line used for research as a model for human skin cancers. Both MC38 and B16 cancer cell lines are commercially available.
# The MC38 colorectal cancer cell line was maintained in RPMI 1640 media (Thermofisher) supplemented with 10% FBS (Gibco), 50 μM beta-mercaptoethanol (Thermofisher), 100 U/ml penicillin/streptomycin (Thermofisher), 1 mM Sodium Pyruvte (Thermofisher).
# B57BL/6 mice were purchased from ENVIGO and housed in the animal facility of the University of Lausanne. One week upon arrival mice were fed ad libitum with Urolithin A enriched diet. Urolithin A diet was prepared as follow: 300 mg of Urolithin A (Novalix) was dissolved in DMSO (Applichem) and mixed with 1 kg of “2016 Irradiated Global 16% Rodent diet ground” (ENVIGO) corresponding to a dose of 50 mg/kg/day. For control diet, hereafter named DMSO diet, DMSO (Applichem) was mixed with 1 kg of “2016 Irradiated Global 16% Rodent diet ground” (ENVIGO). The diets were aliquoted in small balls and let them dry under sterile conditions. Mice were fed ad libitum for 4 weeks with DMSO diet or Urolithin A diet before tumor engraftment.
# For tumor engraftment, each mouse was injected subcutaneously with 5×10^5 MC38 cancer cells or 1×10^5 B16 cancer cells into the right flank.
# For the MC38 and B16 experiments 5 mice received ad libitum DMSO diet, and 5 mice received ad libitum Urolithin A enriched diet for 4 weeks before tumor injection. Mice were sacrificed at humane endpoint as established by the Swiss federal regulation and approved by cantonal authorities. Examples of humane endpoint are: tumor size exceeding […], loss of weight (15% of the previous time point) and sign of distress. […] These mice were named survivor mice.
# To test this hypothesis, mice were fed ad libitum with UroA diet (see above, Urolithin A diet) and control diet (DMSO, see above) for 4 weeks. Colorectal cancer cells MC38 were subcutaneously injected in the right flank of the mice (FIG. 1A). Tumor volumes were estimated by using the formula: tumor volume=(length×width×width)/2.
smiles,measurement,setting,value
"O=c1oc2cc(O)ccc2c2ccc(O)cc12 [Urolithin A, 3,8-dihydroxyurolithin]",average tumor size,B16 melanoma [1]; UroA group (kept on diet),200 mm^3
same,average tumor size,"B16 melanoma [1]; UroA on/off group (4 weeks diet, then conventional diet one week before injection)",200 mm^3
same,effect on tumor growth rate and size,MC38 cells,no change in tumors growth rate and volume
same,effect on tumor growth rate and size,MC38 cells; listed as UroA,no effect on tumor size
same,tumor size at last timepoint,"MC38 cells; day 18, NSG mice, Urolithin A enriched diet 4 weeks, 5×10^5 MC38 cells s.c.",1000 mm³
same,overall quality of HSCs,[2],increased
same,splenocytes count,[2],increased
same,average tumor size,B16 melanoma [3],70 mm^3
same,average tumor size upon re-challenge,"[4]; survivor mice re-injected with MC38 in opposite flank after 7 weeks, conventional food without UroA for one week before injection",100 mm^3
same,survival upon re-challenge,"[4]; survivor mice vs freshly challenged control cage group, listed as UroA",better tumor control capacity and survival; also recorded: improved overall survival
same,average tumor size,"[5]; Exp1, 5 mice, Urolithin A enriched diet ad libitum 4 weeks (50 mg/kg/day) before s.c. injection of 5×10^5 MC38 cells",50 mm^3
same,tumor engraftment and growth,"[5]; Exp1 and Exp2, UroA enriched diet ad libitum vs DMSO diet",significantly reduced
same,mice that developed tumors bigger than 100 mm^3,"[5]; Exp2, out of 3 mice on Urolithin A enriched diet",one
same,mice that did not develop any tumor,"[5]; MC38, mice fed Urolithin A diet",4 out of 5
same,overall survival,"[5]; UroA diet compared to DMSO diet, MC38 model",improved overall survival

# — patent US20250032447A1, “USE OF UROLITHIN IN THE REMISSION PHASE OF A PRECEDING CANCER THERAPY” (SOCIETE DES PRODUITS NESTLE S.A., priority 2022, published 2025)
